Our source for the mass density values is the NIST ThermoML archive (doi:10.1021/je049712l).

The structures appear in SMILES notation. Numbers after ± are expanded uncertainties.

The conditions of this data set: 101.33 kPa, Liquid, Vibrating tube method.

In the case of `CO` [methanol], the mass density – broadly, the mass of a sample divided by its volume – runs as follows: (273 K) 800 ± 24 kg/m3; (298 K) 787 ± 24 kg/m3; (303 K) 786 ± 24 kg/m3; (313 K) 779 ± 24 kg/m3; (323 K) 768 ± 24 kg/m3.
